Measurements: PubChem BioAssay (NCI)
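Growth conditions: 96-well plates. Treatment: test compound, 48 hours, 5 concentrations. Analysis: linear interpolation between bracketing concentrations; unreached endpoints set to highest concentration. GI50 marks 50% less growth. At the TGI there is no net growth.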

Legend:
Test in all cases: NCI anticancer screen, dose series, 48 h
[1] = tested on: SK-MEL-2 melanoma
[2] = tested on: IGROV1 ovarian
[3] = tested on: SF-295 CNS
[4] = tested on: BT-549 breast
[5] = tested on: SR leukemia
[6] = tested on: T-47D breast
[7] = tested on: HT29 colon
[8] = tested on: UACC-62 melanoma
[9] = tested on: TK-10 renal
[10] = tested on: SK-OV-3 ovarian
[11] = tested on: HOP-62 NSCLC
[12] = tested on: NCI-H23 lung
[13] = tested on: SNB-75 CNS
[14] = tested on: K-562 leukemia
[15] = tested on: HCT-116 colon
[16] = tested on: MALME-3M melanoma
[17] = tested on: SF-268 CNS
[18] = tested on: NCI/ADR-RES ovarian
[19] = tested on: SW-620 colon
[20] = tested on: OVCAR-8 ovarian
[21] = tested on: NCI-H522 lung
[22] = tested on: ACHN renal
[23] = tested on: RXF 393 renal
[24] = tested on: HCC-2998 colon
[25] = tested on: SK-MEL-28 melanoma
[26] = tested on: COLO 205 colon
[27] = tested on: OVCAR-5 ovarian
[28] = tested on: KM12 colon
[29] = tested on: M14 melanoma
[30] = tested on: LOX IMVI melanoma
[31] = tested on: HL-60(TB) leukemia
[32] = tested on: NCI-H460 lung
[33] = tested on: DU-145 prostate
[34] = tested on: SNB-19 CNS
[35] = tested on: MDA-MB-231 breast
[36] = tested on: A549 NSCLC
[37] = tested on: SF-539 CNS
[38] = tested on: MOLT-4 leukemia
[39] = tested on: CAKI-1 renal
[40] = tested on: MCF7 breast
[41] = tested on: HOP-92 NSCLC
[42] = tested on: HCT-15 colon
[43] = tested on: U251 CNS
[44] = tested on: SN12C renal
[45] = tested on: UACC-257 melanoma
[46] = tested on: 786-0 renal
[47] = tested on: HS 578T breast
[48] = tested on: UO-31 renal
[49] = tested on: PC-3 prostate
[50] = tested on: CCRF-CEM leukemia
[51] = tested on: MDA-MB-435
[52] = tested on: NCI-H226 lung
[53] = tested on: A498 renal
[54] = tested on: RPMI-8226 leukemia
[55] = tested on: OVCAR-4 ovarian
[56] = tested on: SK-MEL-5 melanoma
[57] = tested on: OVCAR-3 ovarian

What does the source list for `Cn1cc(C2=C(c3cccc4ccccc34)C(=O)NC2=O)c2ccccc21`?
GI50 [1]: 7.33 µM; TGI [1]: 18.6 µM; GI50 [2]: 11.2 µM; TGI [2]: > 24.1 µM; GI50 [3]: 8.26 µM; TGI [3]: > 23.1 µM; GI50 [4]: 7.49 µM; TGI [4]: 19.7 µM; GI50 [5]: 7 µM; TGI [5]: > 20.9 µM; GI50 [6]: 6.32 µM; TGI [6]: 24.5 µM; GI50 [7]: 7.45 µM; TGI [7]: > 25 µM; GI50 [8]: 8.33 µM; TGI [8]: > 25 µM; GI50 [9]: 9.14 µM; TGI [9]: > 23.9 µM; GI50 [10]: 8.35 µM; TGI [10]: > 25 µM; GI50 [11]: 18.5 µM; TGI [11]: > 25 µM; GI50 [12]: 8.92 µM; TGI [12]: > 25 µM; GI50 [13]: 3.73 µM; TGI [13]: > 25 µM; GI50 [14]: 10.3 µM; TGI [14]: > 25 µM; GI50 [15]: 5.92 µM; TGI [15]: > 16.7 µM; GI50 [16]: 9.45 µM; TGI [16]: 24.2 µM; GI50 [17]: 9.17 µM; TGI [17]: > 25 µM; GI50 [18]: 9.59 µM; TGI [18]: > 25 µM; GI50 [19]: 9.45 µM; TGI [19]: > 25 µM; GI50 [20]: 7.17 µM; TGI [20]: 19 µM; GI50 [21]: 6.53 µM; TGI [21]: 19.1 µM; GI50 [22]: 7.48 µM; TGI [22]: > 25 µM; GI50 [23]: 4.41 µM; TGI [23]: 9.93 µM; GI50 [24]: 12.2 µM; TGI [24]: > 25 µM; GI50 [25]: 8.91 µM; TGI [25]: > 25 µM; GI50 [26]: 7.23 µM; TGI [26]: > 22.9 µM; GI50 [27]: 12.8 µM; TGI [27]: > 25 µM; GI50 [28]: 7.3 µM; TGI [28]: > 22.6 µM; GI50 [29]: 11.5 µM; TGI [29]: > 25 µM; GI50 [30]: 6.96 µM; TGI [30]: > 25 µM; GI50 [31]: 10.4 µM; TGI [31]: > 25 µM; GI50 [32]: 8.2 µM; TGI [32]: > 25 µM; GI50 [33]: 12.3 µM; TGI [33]: > 25 µM; GI50 [34]: 14 µM; TGI [34]: > 25 µM; GI50 [35]: 8.74 µM; TGI [35]: > 25 µM; GI50 [36]: 7.63 µM; TGI [36]: > 25 µM; GI50 [37]: 5.99 µM; TGI [37]: 14.2 µM; GI50 [38]: 7.9 µM; TGI [38]: > 22.5 µM; GI50 [39]: 5.31 µM; TGI [39]: > 22.9 µM; GI50 [40]: 5.7 µM; TGI [40]: > 25 µM; GI50 [41]: 8.46 µM; TGI [41]: 24.3 µM; GI50 [42]: 6.66 µM; TGI [42]: > 25 µM; GI50 [43]: 7.44 µM; TGI [43]: > 25 µM; GI50 [44]: 6.58 µM; TGI [44]: > 17.5 µM; GI50 [45]: 12.1 µM; TGI [45]: > 25 µM; GI50 [46]: 7.99 µM; TGI [46]: > 25 µM; GI50 [47]: 6.69 µM; TGI [47]: > 24 µM; GI50 [48]: 7.38 µM; TGI [48]: > 25 µM; GI50 [49]: 7.51 µM; TGI [49]: > 25 µM; GI50 [50]: 8.3 µM; TGI [50]: 24.5 µM; GI50 [51]: 6.06 µM; TGI [51]: > 25 µM; GI50 [52]: 7.7 µM; TGI [52]: > 25 µM; GI50 [53]: 6.76 µM; TGI [53]: 22.5 µM; GI50 [54]: 8.18 µM; TGI [54]: > 19.9 µM; GI50 [55]: 7.21 µM; TGI [55]: > 23.8 µM; GI50 [56]: 5.1 µM; TGI [56]: 11.9 µM; GI50 [57]: 6.06 µM; TGI [57]: 14.4 µM
